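Grown in 96-well plates, cells were treated for 48 hours with each compound at five concentrations. Insufficient inhibition: endpoint recorded as highest concentration tested. The concentration for 50% growth inhibition is given as GI50.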 Activity calls are given as the source filed them. Rule as the data show it: active = GI50 up to about 1.1 µM and inactive = higher.
Tests used:
Assay in all cases: inhibition of tumour cell growth, NCI panel, 48 h
[1] = test system: A549
[2] = test system: DU-145
[3] = test system: EKVX
[4] = test system: HCC 2998
[5] = test system: HCT-116
[6] = test system: HOP-92
[7] = test system: Hs-578T
[8] = test system: K562
[9] = test system: LOX IMVI
[10] = test system: MCF7
[11] = test system: MDA-N
[12] = test system: Malme-3M
[13] = test system: NCI-H522
[14] = test system: OVCAR-5
[15] = test system: RPMI-8226
[16] = test system: SN12C
[17] = test system: SW-620
[18] = test system: U-251
[19] = test system: UO-31

Measured: GI50

Cc1ccc(C(=N)Nc2ccccc2)cc1
inactive: [1] > 100 µM | [2] > 100 µM | [3] > 100 µM | [4] 8.13 µM | [5] > 100 µM | [6] > 100 µM | [7] > 100 µM | [8] > 100 µM | [9] > 100 µM | [10] 41.9 µM | [11] > 100 µM | [12] > 100 µM | [13] > 100 µM | [14] > 100 µM | [15] > 100 µM | [16] > 100 µM | [17] > 100 µM | [18] > 100 µM | [19] > 100 µM

COc1ncc(/C=C2\OC(=O)c3ccccc32)c(OC)n1
inactive: [1] 17.5 µM | [2] 88.9 µM | [3] 23.5 µM | [4] 76 µM | [5] > 100 µM | [6] 47.5 µM | [7] 10.1 µM | [8] 29.2 µM | [9] 7.16 µM | [10] 25.8 µM | [11] 50 µM | [12] 10.7 µM | [13] 26.1 µM | [14] > 100 µM | [15] 5.94 µM | [16] > 100 µM | [17] > 100 µM | [18] 13.6 µM | [19] 12.9 µM

NCCCCN(CCCN)Cc1ccc2ccccc2c1
inactive: [1] 51.9 µM | [2] 66.7 µM | [3] 21.3 µM | [4] 10.6 µM | [5] 36.7 µM | [6] 29 µM | [7] 11.3 µM | [8] > 100 µM | [9] 29.2 µM | [10] 54.1 µM | [11] 21.3 µM | [12] 51.8 µM | [13] 13.5 µM | [14] 28.8 µM | [15] > 100 µM | [16] 12.9 µM | [17] > 100 µM | [18] 59 µM | [19] 13.7 µM

O=C1CCCCN1C(=O)c1ccc([N+](=O)[O-])cc1
inactive: [1] > 100 µM | [2] > 100 µM | [3] > 100 µM | [4] > 100 µM | [5] > 100 µM | [6] > 100 µM | [7] > 100 µM | [8] > 100 µM | [9] > 100 µM | [10] > 100 µM | [11] 57.7 µM | [12] > 100 µM | [13] > 100 µM | [14] > 100 µM | [15] > 100 µM | [16] 24 µM | [17] > 100 µM | [18] > 100 µM | [19] > 100 µM

CN(C)c1cccc(NC2=NCCO2)c1
inactive: [1] > 100 µM | [2] > 100 µM | [3] 78.5 µM | [4] 89.9 µM | [5] 35.9 µM | [6] 12.2 µM | [7] 43.6 µM | [8] 30.8 µM | [9] 31.9 µM | [10] 50.5 µM | [11] 17.5 µM | [12] 33.9 µM | [13] 80.2 µM | [14] > 100 µM | [15] 65.5 µM | [16] 52.5 µM | [17] 57.7 µM | [18] 83.8 µM | [19] > 100 µM

O=S(=O)(O)c1ccc(/N=N/c2c(O)ccc3ccccc23)cc1
inactive: [1] > 100 µM | [2] > 100 µM | [3] > 100 µM | [4] > 100 µM | [5] > 100 µM | [6] > 69.8 µM | [7] > 100 µM | [8] > 100 µM | [9] > 100 µM | [10] > 100 µM | [11] > 100 µM | [12] 4.58 µM | [13] > 100 µM | [14] > 100 µM | [15] > 100 µM | [16] > 100 µM | [17] > 100 µM | [18] > 100 µM | [19] > 100 µM
